Test results reported in ChEMBL document CHEMBL4308923, “Identification of Human Toll-like Receptor 2-Agonistic Activity in Dihydropyridine-Quinolone Carboxamides” (ACS Med Chem Lett, 2019).
Calls of active or inactive are those of the source. The rule behind the calls is not given here.

Tests used:
Type in all cases: cell-based
Toll-like receptor 2 [1] = target: T1, Toll-like receptor 2 (Homo sapiens, UniProt O60603); experiment: Agonist activity at human TLR2 expressed in HEK-Blue cells harboring NFkB promoter-driven secreted alkaline phosphatase assessed as induction of NFkB after 12 hrs by spectrophotometric assay
T1 sequence (O60603 whole entry): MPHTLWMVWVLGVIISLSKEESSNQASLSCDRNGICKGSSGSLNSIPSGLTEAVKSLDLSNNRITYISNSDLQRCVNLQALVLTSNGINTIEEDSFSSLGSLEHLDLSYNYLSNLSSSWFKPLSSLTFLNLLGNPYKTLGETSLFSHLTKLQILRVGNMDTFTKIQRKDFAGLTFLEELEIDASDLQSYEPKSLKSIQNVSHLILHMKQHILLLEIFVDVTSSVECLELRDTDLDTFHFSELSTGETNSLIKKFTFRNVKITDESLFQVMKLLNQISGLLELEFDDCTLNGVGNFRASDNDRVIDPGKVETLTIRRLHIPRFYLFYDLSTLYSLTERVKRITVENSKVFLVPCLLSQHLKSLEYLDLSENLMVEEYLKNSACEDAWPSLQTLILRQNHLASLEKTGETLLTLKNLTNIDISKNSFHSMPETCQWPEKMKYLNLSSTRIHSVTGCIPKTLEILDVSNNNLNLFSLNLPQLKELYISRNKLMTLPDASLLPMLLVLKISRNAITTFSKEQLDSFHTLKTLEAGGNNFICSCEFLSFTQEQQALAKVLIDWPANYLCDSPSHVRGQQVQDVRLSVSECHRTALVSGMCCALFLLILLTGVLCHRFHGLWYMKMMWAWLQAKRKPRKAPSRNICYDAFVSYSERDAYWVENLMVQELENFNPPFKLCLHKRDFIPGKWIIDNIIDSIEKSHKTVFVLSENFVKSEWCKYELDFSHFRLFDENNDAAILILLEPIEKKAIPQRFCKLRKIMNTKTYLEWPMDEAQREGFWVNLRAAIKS

Toll-like receptor 2 [2] = target: T1, Toll-like receptor 2; experiment: Agonist activity at human TLR2 expressed in HEK cells assessed as induction of MCP1 by ELISA
Toll-like receptor 2 [3] = target: T1, Toll-like receptor 2; experiment: Agonist activity at human TLR2 expressed in HEK cells assessed as induction of MIP1beta level
Toll-like receptor 2 [4] = target: T1, Toll-like receptor 2; experiment: Agonist activity at human TLR2 expressed in human THP1-Blue cells harboring NFkB promoter-driven secreted alkaline phosphatase assessed as induction of NFkB after 12 hrs co-treated with PAM2CSK4 by spectrophotometric assay
Toll-like receptor 2 [5] = target: T1, Toll-like receptor 2; experiment: Agonist activity at human TLR2 expressed in HEK cells assessed as induction of MIP1alpha level

| Activity (Toll-like receptor 2 [1]) | SMILES | further results |
| --- | --- | --- |
| Active | Cc1ccc(S(=O)(=O)N2CCC[C@H]2C(=O)N2c3ccc(F)cc3CC[C@H]2C)cc1 |  |
|  | CC1CCc2cc(F)cc3c(O)c(C(=O)NCc4cncc(F)c4)c(=O)n1c23 (configuration not stated) | EC50 (Toll-like receptor 2 [1]): 1000 nM; EC50 (Toll-like receptor 2 [2]): 4520 nM |
| inactive | CC1CCc2cc(F)cc3c(O)c(C(=O)NCc4nccn4C)c(=O)n1c23 (configuration not stated) |  |
| inactive | CC1CCc2cc(F)cc3c(O)c(C(=O)NCc4ccnn4C)c(=O)n1c23 (configuration not stated) |  |
|  | CC1CCc2cc(F)cc3c(O)c(C(=O)NCc4cccnc4N(C)C)c(=O)n1c23 (configuration not stated) | EC50 (Toll-like receptor 2 [1]): 3200 nM; EC50 (Toll-like receptor 2 [2]): 3090 nM |
| Active | C[C@H]1CCc2cc(F)cc3c(O)c(C(=O)NCc4cccnc4)c(=O)n1c23 | Activity (Toll-like receptor 2 [3]): Active; Activity (Toll-like receptor 2 [4]): Active; Activity (Toll-like receptor 2 [2]): Active; Activity (Toll-like receptor 2 [5]): Active |
| inactive | Cc1nn(C)cc1CNC(=O)c1c(O)c2cc(F)cc3c2n(c1=O)C(C)CC3 (configuration not stated) |  |
| inactive | CC1CCc2cc(F)cc3c(O)c(C(=O)NCc4n[nH]c5ccccc45)c(=O)n1c23 (configuration not stated) |  |
| inactive | COc1cc(CNC(=O)c2c(O)c3cc(F)cc4c3n(c2=O)C(C)CC4)ccn1 (configuration not stated) |  |
| inactive | Cc1cc(CNC(=O)c2c(O)c3cc(F)cc4c3n(c2=O)C(C)CC4)no1 (configuration not stated) |  |
| inactive | CC1CCc2cc(F)cc3c(O)c(C(=O)NCc4ccc5[nH]ccc5c4)c(=O)n1c23 (configuration not stated) |  |
| Active | C[C@@H]1CCc2cc(F)cc3c(O)c(C(=O)NCc4cccnc4)c(=O)n1c23 |  |
| inactive | CC1CCc2cc(F)cc3c(O)c(C(=O)NCc4ccncc4)c(=O)n1c23 (configuration not stated) |  |
| inactive | CC1CCc2cc(F)cc3c(O)c(C(=O)NCc4cccc5[nH]ccc45)c(=O)n1c23 (configuration not stated) |  |
| inactive | CC1CCc2cc(F)cc3c(O)c(C(=O)Nc4cccnc4)c(=O)n1c23 (configuration not stated) |  |
| inactive | CC1CCc2cc(F)cc3c(O)c(C(=O)NCC4CCNCC4)c(=O)n1c23 (configuration not stated) |  |
| inactive | CC1CCc2cc(F)cc3c(O)c(C(=O)NCc4cccc5cc[nH]c45)c(=O)n1c23 (configuration not stated) |  |
| inactive | CC1CCc2cc(F)cc3c(O)c(C(=O)NCc4cncnc4)c(=O)n1c23 (configuration not stated) |  |
| inactive | CC1CCc2cc(F)cc3c(O)c(C(=O)NCc4cccnn4)c(=O)n1c23 (configuration not stated) |  |
| inactive | CC1CCc2cc(F)cc3c(O)c(C(=O)NCc4ccccn4)c(=O)n1c23 (configuration not stated) |  |
| inactive | CC1CCc2cc(F)cc3c(O)c(C(=O)NCc4nc5ccccc5[nH]4)c(=O)n1c23 (configuration not stated) |  |
| inactive | CC1CCc2cc(F)cc3c(O)c(C(=O)NCc4cnc5ccccc5c4)c(=O)n1c23 (configuration not stated) |  |
| inactive | CC1CCc2cc(F)cc3c(O)c(C(=O)NCc4ccc5c(c4)OCCO5)c(=O)n1c23 (configuration not stated) |  |
| Active | Cc1ccc(S(=O)(=O)N2CCC[C@H]2C(=O)N2c3ccc(F)cc3CC[C@@H]2C)cc1 |  |
| Active | C[C@H]1CCc2cc(F)cc3c(O)c(C(=O)NCc4ccc(N)nc4)c(=O)n1c23 | Activity (Toll-like receptor 2 [3]): Active; Activity (Toll-like receptor 2 [4]): Active; Activity (Toll-like receptor 2 [2]): Active; Activity (Toll-like receptor 2 [5]): Active |
| inactive | CC1CCc2cc(F)cc3c(O)c(C(=O)NCC4CCCCN4)c(=O)n1c23 (configuration not stated) |  |
| inactive | CC1CCc2cc(F)cc3c(O)c(C(=O)NCc4ccno4)c(=O)n1c23 (configuration not stated) |  |
| inactive | CC1CCc2cc(F)cc3c(O)c(C(=O)NCc4ccnnc4)c(=O)n1c23 (configuration not stated) |  |

| Activity (Toll-like receptor 2 [1]) | SMILES | further results |
| --- | --- | --- |
| inactive | CC1CCc2cc(F)cc3c(O)c(C(=O)NCc4ccc(N(C)C)nc4)c(=O)n1c23 (configuration not stated) |  |
|  | CC1CCc2cc(F)cc3c(O)c(C(=O)NCCc4cccnc4)c(=O)n1c23 (configuration not stated) | EC50 (Toll-like receptor 2 [1]): 1350 nM; EC50 (Toll-like receptor 2 [2]): 1860 nM |
| inactive | CC1CCc2cc(F)cc3c(O)c(C(=O)NCCn4ccnc4)c(=O)n1c23 (configuration not stated) |  |
| inactive | CC1CCc2cc(F)cc3c(O)c(C(=O)NCC4CCCNC4)c(=O)n1c23 (configuration not stated) |  |
| inactive | CC1CCc2cc(F)cc3c(O)c(C(=O)NCC4CCCN(C)C4)c(=O)n1c23 (configuration not stated) |  |
| inactive | CC1CCc2cc(F)cc3c(O)c(C(=O)NCc4cnn(C)c4)c(=O)n1c23 (configuration not stated) |  |
| inactive | CC1CCc2cc(F)cc3c(O)c(C(=O)NCc4ccnc5[nH]ccc45)c(=O)n1c23 (configuration not stated) |  |
| inactive | CC1CCc2cc(F)cc3c(O)c(C(=O)NCc4nc5ccccc5n4C)c(=O)n1c23 (configuration not stated) |  |
| Active | C[C@H]1CCc2cc(F)cc3c(O)c(C(=O)NCc4cncc(F)c4)c(=O)n1c23 | Activity (Toll-like receptor 2 [3]): Active; Activity (Toll-like receptor 2 [4]): Active; Activity (Toll-like receptor 2 [2]): Active; Activity (Toll-like receptor 2 [5]): Active |
| inactive | CC1CCc2cc(F)cc3c(O)c(C(=O)NCC4CCOC4)c(=O)n1c23 (configuration not stated) |  |
|  | CC1CCc2cc(F)cc3c(O)c(C(=O)NCc4cccnc4)c(=O)n1c23 (configuration not stated) | EC50 (Toll-like receptor 2 [1]): 300 nM; EC50 (Toll-like receptor 2 [2]): 1350 nM |
| Active | C[C@@H]1CCc2cc(F)cc3c(O)c(C(=O)NCc4ccc(N)nc4)c(=O)n1c23 |  |
|  | Cc1ccncc1CNC(=O)c1c(O)c2cc(F)cc3c2n(c1=O)C(C)CC3 (configuration not stated) | EC50 (Toll-like receptor 2 [1]): 1450 nM |
|  | CC1CCc2cc(F)cc3c(O)c(C(=O)NCc4ccc(N)nc4)c(=O)n1c23 (configuration not stated) | EC50 (Toll-like receptor 2 [1]): 320 nM; EC50 (Toll-like receptor 2 [2]): 7560 nM |
| inactive | CC1CCc2cc(F)cc3c(O)c(C(=O)NCC4CCN(C)C4)c(=O)n1c23 (configuration not stated) |  |
| inactive | CC1CCc2cc(F)cc3c(O)c(C(=O)NCC4CNCCO4)c(=O)n1c23 (configuration not stated) |  |
| inactive | Cc1nnc(CNC(=O)c2c(O)c3cc(F)cc4c3n(c2=O)C(C)CC4)o1 (configuration not stated) |  |
|  | CC1CCc2cc(F)cc3c(O)c(C(=O)NC4CCc5ncccc54)c(=O)n1c23 (configuration not stated) | EC50 (Toll-like receptor 2 [1]): 3000 nM |
| inactive | CC1CCc2cc(F)cc3c(O)c(C(=O)NCc4cccs4)c(=O)n1c23 (configuration not stated) |  |
| inactive | CC1CCc2cc(F)cc3c(O)c(C(=O)NCc4cccc(C(N)=O)c4)c(=O)n1c23 (configuration not stated) |  |
| inactive | CC1CCc2cc(F)cc3c(O)c(C(=O)NCc4ccsc4)c(=O)n1c23 (configuration not stated) |  |
| Active | C[C@H]1CCc2cc(F)ccc2N1 |  |
| inactive | CC1CCc2cc(F)cc3c(O)c(C(=O)NCc4cccc5ncccc45)c(=O)n1c23 (configuration not stated) |  |
| inactive | CC1CCc2cc(F)cc3c(O)c(C(=O)NCc4ccc5c(c4)OCO5)c(=O)n1c23 (configuration not stated) |  |
|  | CC1CCc2cc(F)cc3c(O)c(C(=O)NCc4ccc(Cl)nc4)c(=O)n1c23 (configuration not stated) | EC50 (Toll-like receptor 2 [1]): 5000 nM |
| inactive | CC1CCc2cc(F)cc3c(O)c(C(=O)NCc4cc5ccccc5[nH]4)c(=O)n1c23 (configuration not stated) |  |
| Active | C[C@@H]1CCc2cc(F)ccc2N1 |  |
